This experiment relates to Hyperpigmented melanocytes derived from normal neonatal prepuce. As to the kind of experiment: Effect on melanin synthesis in cultured hyperpigmented melanocytes (melanin content read at 490 nm). It is filed as cell-based. The protocol:
3 solutions of methyl ester of triacetyl leucodopachrome were prepared, respectively at concentrations of 0.0025%, 0.00025% and 0.000025% by weight in DMSO.
The effect of the methyl ester of (S)-triacetyl leucodopachrome on melanin synthesis was evaluated according to the following procedure.
Hyperpigmented melanocytes derived from normal neonatal prepuce of separate donors were bought from the company Cascade Biologics (Portland, Oreg., United States). The cells were seeded in 6-well plates and cultured in a growth medium of the melanocytes (medium topped up with bovine pituitary extract, fetal bovine serum, bovine insulin, transferrin, conventional fibroblast growth factor, hydrocortisone, heparin and phorbol 12-myristate 13-acetate).
In a second stage, the cells were incubated with a growth medium (MGM, Clonetics) containing the active products, in three copies, for 5 days. The medium was withdrawn and the cells washed with PBS (Gibco/Invitrogen). The cells were lyzed and the melanin solubilized in NaOH.
The supernatant was centrifuged. After centrifugation, the clear lysate was transferred to a new plate and the melanin content was measured on an ELISA reader at 490 nm. The pellets were visualized on an Alphalnnotech imager.

Each structure is given as a SMILES string.

With `COC(=O)[C@@H]1Cc2cc(OC(C)=O)c(OC(C)=O)cc2N1C(C)=O` [methyl ester of (S)-triacetyl leucodopachrome], the “inhibition of the melanin synthesis (in words)” value (0.000025% to 0.0025% solutions) is recorded as “increases with the concentration”. Besides, the inhibition (in general, the drop in the measured response relative to a control, in per cent) at 2.5e-05 % strength (Melanocyte, 120 h, 0.000025% by weight solution in DMSO, 5 days incubation, melanin at 490 nm) was 5.49%. The inhibition at 0.00025 % strength (Melanocyte, 120 h, 0.00025% by weight solution in DMSO, 5 days incubation, melanin at 490 nm) was 6.7%. The compound also gave an inhibition at 0.0025 % strength (Melanocyte, 120 h, 0.0025% by weight solution in DMSO, 5 days incubation, melanin at 490 nm) of 32.8%.
